Data published in US9314438B2, “Elevation of the plasma HDL-cholesterol level” (Aarhus Universitet, priority 2007, dated 2016).

Key:
KKAy mice = test: In vivo study: isosteviol treatment of KKAy mice for 9 weeks (plasma lipids, body weight, food intake)
Protocol: Twenty male KKAy-mice (Clea Japan, Tokyo, Japan), all 5 week-old, weighing 22-25 g were randomized to 2 groups and treated for 9 weeks with; A: standard chow diet (control); B: standard chow diet+20 mg/kg BW of ISV. As a non-diabetic control group (C), ten normal C57BL-mice (Taconic, Ry, Denmark) were fed with standard chow diet (control to A), see FIG. 2 for outline of the study. The food intake was measured halfway through the study. The composition of the standard chow diet dry matter was: Protein 24%, carbohydrate 71%, and Lipids 5%. The drug isosteviol (ISV, ent-16-ketobeyeran-19-oic acid; Wako Pure Chemical Industries, Osaka, Japan) was incorporated in the mice food pellet and administered orally. The Danish Council for Animal experiments has approved the study.
Hormones and lipids were measured from blood sample at start and end of the treatment period. Blood sample was taken from the tail of the animals on chilled tubes containing heparin/aprotinin and centrifuged (4000 g, 60 seconds, 4° C.), and plasma was frozen for subsequent analysis of insulin, glucose, triglycerides, total cholesterol and HDL-cholesterol. Fasting blood glucose, as well as bodyweight (BW), was measured before and after intervention.
Plasma blood glucose was determined using the glucose oxidase method (GOD-PAP, Boehringer Mannheim, GmbH Germany). Insulin was determined by radioimmunoassay with a guinea pig antiporcine insulin antibody (PNILGP4, Novo Nordisk, Bagsvaerd, Denmark), and mono-[^125I]-(TyrA14) labeled human insulin (Novo Nordisk) as tracer and rat insulin (Novo Nordisk) as standard. We separated free and bound radioactivity using ethanol (See Heding L. G. Determination of total serum insulin (IRI) in insulin-treated diabetic patients; Diabetologia 1972; 8:260-266). Interassay and intra-assay variation was below 10%. […] The fasting plasma triglyceride level was measured by the enzymatic colorimetric GPO-PAP method (Glycerol phosphate oxidase±phenol 4 amino phenazon), based on Trinder, using commercially available test kits (Roche Diagnostics, Basel, Germany), and the Cobas Mira instrument (Roche Diagnostics). The fasting total plasma cholesterol level and the HDL-cholesterol level were measured by an enzymatic colorimetric test, the “cholesterol CHOD-PAP” method (cholesterol oxidase±phenol 4 amino phenazon), based on Trinder, using commercially available test kits (Roche Diagnostics, Basel, Germany), and the Cobas Mira instrument (Roche Diagnostics).
Data are expressed as means±standard error of the mean (SEM). Statistical significance between two groups was evaluated using a two-tailed t test. A p value of less than 0.05 was considered statistically significant. For plasma glucose calculations, analysis of covariance with adjustment for end body weight was performed.

[1] = test system: normal Wistar rats given a normal chow diet; test: In vivo study: isosteviol treatment of normal Wistar rats on chow diet for 20 weeks (groups 1 and 2); details: for plasma HDL-cholesterol level increase, Δ in %: chow diet + isosteviol 0.03 g/kg/day
Text: (§1) 44 normal wistar rats at the age of about 6 weeks and a bodyweight of about 230 g, was randomised into 4 groups, with 11 in each group. Group 1 and 2 were fed with standard chow diet±Isosteviol (0.03 g/kg/day). Group 3 and 4 were diet induced to be hyperlipidemic by feeding with a high cholesterol containing diet (1.63% g cholesterol, 0.41% g Cholic acid, 16.3% g sunflower oil)±Isosteviol (0.03 g/kg/day). In the experiment was used Isosteviol with a purity of 99.4%. The treatment period was 20 weeks.
(§2) Blood samples were analyzed for hormones and lipids at the start and end of the study. The blood samples were taken from the tail or eye into glasses containing heparine/aprotinin. The samples were centrifuged and the plasma was frozen. The following were analyzed: total fasting plasma triglyceride level, total plasma cholesterol level, and plasma HDL-cholesterol level. Liver samples were analysed for mRNA expression of genes like SREBP-1, which have relation to the fat metabolism. The body weight was measured throughout the study period together with the food intake.
(§3) The fasting total plasma cholesterol level and the HDL-cholesterol level were measured by an enzymatic colorimetric test, the “cholesterol CHOD-PAP” method (cholesterol oxidase±phenol 4 amino phenazon), based on Trinder, using commercially available test kits (Roche Diagnostics, Basel, Germany), and the Cobas Mira instrument (Roche Diagnostics). The fasting plasma triglyceride level was measured by the enzymatic colorimetric GPO-PAP method (Glycerol phosphate oxidase±phenol 4 amino phenazon), based on Trinder, using commercially available test kits (Roche Diagnostics, Basel, Germany), and the Cobas Mira instrument (Roche Diagnostics).
(§4) Data are expressed as means±standard error of the mean (SEM). Statistical significance between two groups was evaluated using a two-tailed t test. A p value of less than 0.05 was considered statistically significant. For statistical analysis were used student t-tests and two way ANOVA-tests.
(§5) The setup differs from the setup in Example 1 by the use of non-diabetic rats versus the diabetic hyperlipidemic KKAY mouse model. In the present study the effect on HDL is investigated by comparing rats with a normal cholesterol level with rats having a diet induced elevated plasma cholesterol level.

[2] = test system: normal Wistar rats given a high fat diet; test: In vivo study: isosteviol treatment of normal Wistar rats on high fat diet for 20 weeks (groups 3 and 4); details: for plasma HDL-cholesterol level increase, Δ in %: high fat diet + isosteviol 0.03 g/kg/day
Text: as §1, §2, §3, §4, §5

[3] = test system: patients at high risk for coronary events; details: phase 3 clinical trial, active treatment group; trial terminated; cited from earlier work
[4] = KKAy mice, 20 mg/kg BW/day, after 9 weeks, n=10, in mM
[5] = Chow +Isosteviol, end (20 weeks)
[6] = Chow +Isosteviol, start of study
[7] = start to end (20 weeks), listed as Isosteviol
[8] = chow diet + isosteviol, start to end (20 weeks)
[9] = comparing group 2 with group 1 at the end of the study period
[10] = group 2, chow + isosteviol, start to end (20 weeks)
[11] = High fat +Isosteviol, end (20 weeks)
[12] = High fat +Isosteviol, start of study
[13] = High fat +Isosteviol, start to end
[14] = high fat diet + isosteviol, start to end (20 weeks)

C[C@@]12CC[C@@H]3[C@@](CC[C@H]4[C@@]3(C)CCC[C@@]4(C)C(=O)O)(CC1=O)C2 (single isomer, unassigned; ent-16) [isosteviol, ent-16-ketobeyeran-19-oic acid]
fasting plasma triglyceride (TG) level (KKAy mice; ISV group, age 5 week (start of treatment)): 1.25 mmol/L
fasting plasma triglyceride (TG) level (KKAy mice; ISV group, age 14 weeks (after 9 weeks treatment)): 2.02 mmol/L
TG level increase, age 14 weeks compared to age 5 week (KKAy mice; ISV group, KKAy control increased 192%): 62%
fasting total plasma cholesterol level increased by (KKAy mice; KKAy mice, 20 mg isosteviol/kg body weight/day in chow, after 9 weeks, vs KKAy control): 28%
fasting plasma HDL-cholesterol, mean±SEM (KKAy mice; [4]): 2.999±0.091
fasting plasma total cholesterol, mean±SEM (KKAy mice; [4]): 3.055±0.067
plasma HDL-cholesterol concentration increased by (KKAy mice; KKAy mice, 20 mg/kg BW/day, after 9 weeks, vs KKAy control): 71%
plasma TG decreased compared to the KKAy group (KKAy mice; after 9 weeks treatment): 48%
body weight (KKAy mice; after 9 weeks treatment, KKAy control 41.6 g): 36.3 g
reduction in weight (KKAy mice; end of the 9 week treatment period, vs KKAy control): 13%
HDL cholesterol, End [1, 5]: 1.42 ± 0.08 MM
Total Cholesterol, End [1, 5]: 1.67 ± 0.09 MM
HDL cholesterol, Start [1, 6]: 1.25 ± 0.06 MM
Total Cholesterol, Start [1, 6]: 1.61 ± 0.06 MM
HDL cholesterol Δ Abs ([1]; Chow +Isosteviol, start to end): 0.17 ± 0.04 mM
Total Cholesterol Δ Abs ([1]; Chow +Isosteviol, start to end): 0.07 ± 0.06 mM
plasma HDL-cholesterol level increase, Δ in % ([1]; start to end (20 weeks)): 14%
plasma HDL-cholesterol level increase, Δ in % [1, 7]: 14%
fasting total plasma cholesterol level increase, Δ in % [1, 8]: 4%
fasting total plasma cholesterol level Δ [1, 8]: 0.07 ± 0.06 mmol/L
fasting total plasma cholesterol level increase, Δ in % ([1]; chow diet + isosteviol, start to end (20 weeks), listed as Isosteviol): 4%
reduction in triglyceride concentration, Δchange in % [1, 9]: 61±18%
reduction in triglyceride concentration, Δchange in absolute values [1, 9]: -0.28 ± 0.10 mmol/L
body weight reduced by ([1]; group 2 (chow + isosteviol) compared to group 1 (chow control), 20 weeks): 16%
body weight, mean±SEM ([1]; group 2, chow + isosteviol, 10 weeks of treatment): 371 ± 10 g
body weight, mean±SEM ([1]; group 2, chow + isosteviol, after 20 weeks of treatment): 388 ± 13 g
change in the fasting plasma triglyceride concentration [1, 10]: -0.16 ± 0.09 mmol/L
decrease in the fasting plasma triglyceride concentration [1, 10]: 23%
deaths ([1]; group 2, chow diet + isosteviol, 20 weeks): No deaths
HDL cholesterol, End [2, 11]: 2.45 ± 0.25 MM
Total Cholesterol, End [2, 11]: 4.46 ± 0.37 MM
HDL cholesterol, Start [2, 12]: 1.34 ± 0.06 MM
Total Cholesterol, Start [2, 12]: 1.68 ± 0.1 MM
HDL cholesterol Δ Abs [2, 13]: 1.11 ± 0.26 mM
Total Cholesterol Δ Abs [2, 13]: 2.77 ± 0.38 mM
deaths ([2]; group 4, high fat diet + isosteviol, 20 weeks, two deaths in group 3 without isosteviol): No deaths
plasma HDL-cholesterol level increase, Δ in % ([2]; start to end (20 weeks)): 88%
plasma HDL-cholesterol level increase, Δ in % [2, 7]: 88%
fasting total plasma cholesterol level increase, Δ in % [2, 14]: 175%
fasting total plasma cholesterol level Δ [2, 14]: 2.77 ± 0.38 mmol/L
plasma HDL-cholesterol level Δ (SEM) [2, 14]: 1.11 ± 0.26 mmol/L
fasting total plasma cholesterol level increase, Δ in % ([2]; high fat diet + isosteviol, start to end (20 weeks), listed as Isosteviol): 175%

CCOC(=O)N1c2ccc(C(F)(F)F)cc2[C@@H](N(Cc2cc(C(F)(F)F)cc(C(F)(F)F)c2)C(=O)OC)C[C@H]1CC [torcetrapib]
mortality [3]: increased mortality
